Experimental findings from patent US8367658B2, “Pyrazin-2-yl-pyridin-2-yl-amine and pyrazin-2-yl-pyrimidin-4-yl-amine compounds and their use” (Cancer Research Technology Limited, priority 2007, dated 2013) are described below.

Several values for one entry are separate records, joined by “and”; a condition that tells them apart may be missing. Identical values can stand only once.

For this experiment, the target named is T1, CHK1 (Homo sapiens, UniProt O14757).
T1 sequence (O14757 1-476): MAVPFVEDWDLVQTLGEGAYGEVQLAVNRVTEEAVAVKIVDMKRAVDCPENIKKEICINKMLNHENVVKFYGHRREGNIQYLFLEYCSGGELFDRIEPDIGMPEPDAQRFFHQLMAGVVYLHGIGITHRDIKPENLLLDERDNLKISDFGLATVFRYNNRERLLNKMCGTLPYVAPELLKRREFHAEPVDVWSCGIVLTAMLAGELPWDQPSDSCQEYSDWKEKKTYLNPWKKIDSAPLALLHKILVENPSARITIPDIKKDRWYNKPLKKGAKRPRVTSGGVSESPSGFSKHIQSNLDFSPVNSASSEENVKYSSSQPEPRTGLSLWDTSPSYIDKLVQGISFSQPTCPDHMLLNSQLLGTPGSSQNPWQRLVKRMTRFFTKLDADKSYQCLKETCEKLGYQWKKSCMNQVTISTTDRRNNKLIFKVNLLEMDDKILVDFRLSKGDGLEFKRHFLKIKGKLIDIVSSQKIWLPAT
In words: CHK1 kinase function inhibition assay (DELFIA, phosphorylation of a CDC25C peptide). Format: biochemical. The following applies: CHK1 1 nM, ATP 30 μM, 30 minutes at room temperature. In outline: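 Phosphorylation of a CDC25C peptide detected by DELFIA with a phospho-specific antibody. Kinase reaction ran 30 min at room temperature, was stopped with EDTA buffer, then captured on neutravidin-coated plates for 1 h before time-resolved fluorescence read-out with enhancement solution.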
As for `CN(C)CC(=O)Nc1cnc(Nc2cnc(C#N)cn2)cc1NC1CC2CCC(C1)N2C` (centres unmarked) [Compound Y-015, N-(6-(5-Cyanopyrazin-2-ylamino)-4-(8-methyl-8-aza-bicyclo[3.2.1]octan-3-ylamino)pyridin-3-yl)-2-(dimethylamino)acetamide], the IC50 was 1 to 10 µM.
Under `CC(C)NC(=O)c1cnc(Nc2cnc(C#N)cn2)cc1NCC1CCNCC1` [Compound Y-086, 6-(5-Cyanopyrazin-2-ylamino)-N-isopropyl-4-(piperidin-4-ylmethylamino)nicotinamide] stands at most 0.1 µM; under `N#Cc1cnc(Nc2cc(NCC3CCNCC3)c(C(=O)Nc3cccc(F)c3)cn2)cn1` [Compound Y-094, 6-(5-Cyanopyrazin-2-ylamino)-N-(3-fluorophenyl)-4-(piperidin-4-ylmethylamino)nicotinamide], 0.1 to 1 µM.
The compound `N#Cc1cnc(Nc2cc(NCC3CCNCC3)c(Cl)cn2)cn1` [Compound Y-124, 5-(5-chloro-4-(piperidin-4-ylmethylamino)pyridin-2-ylamino)pyrazine-2-carbonitrile] yielded an IC50 of at most 0.1 µM.
The compound `N#Cc1cnc(Nc2cc(N(CCN)CC(N)=O)ncn2)cn1` [Compound Z-009, 2-((2-Aminoethyl)(6-(5-cyanopyrazin-2-ylamino)pyrimidin-4-yl)amino)acetamide] registered an IC50 of 1 to 10 µM.
Under `COc1ccc(-c2cnc(Nc3cnc(C#N)cn3)cc2NCC2(F)CCNCC2)cc1` [Compound Y-136, 5-(4-((4-Fluoropiperidin-4-yl)methylamino)-5-(4-methoxyphenyl)pyridin-2-ylamino)pyrazine-2-carbonitrile] stands at most 0.1 µM; under `N#Cc1cnc(Nc2cc(NCCC3CNCCO3)c(-c3ccccc3)cn2)cn1` (centres unmarked) [Compound Y-138, 5-(4-(2-(Morpholin-2-yl)ethylamino)-5-phenylpyridin-2-ylamino)pyrazine-2-carbonitrile], at most 0.1 µM; under `N#Cc1cnc(Nc2cc(NCC3CCCNC3)c(-n3ccc(C(=O)NCCCO)c3)cn2)cn1` (centres unmarked) [Compound Y-067, 1-(6-(5-Cyanopyrazin-2-ylamino)-4-(piperidin-3-ylmethylamino)pyridin-3-yl)-N-(3-hydroxypropyl)-1H-pyrrole-3-carboxamide], at most 0.1 µM.
Take `N#Cc1cnc(Nc2cc(NCC3CCCNC3)c(N)cn2)cn1` (centres unmarked) [Compound Y-041, 5-(5-Amino-4-(piperidin-3-ylmethylamino)pyridin-2-ylamino)pyrazine-2-carbonitrile]: the IC50 is at most 0.1 µM.
`NCCCNc1cc(Nc2cnccn2)ncn1` [Compound Z-005, N-(3-Aminopropyl)-A-pyrazin-2-ylpyrimidine-4,6-diamine]: the IC50 lay in the range of 1 to 10 µM.
In the case of `CCNC(=O)c1cnc(Nc2cnc(C#N)cn2)cc1NC1CC2CCC(C1)N2C` (centres unmarked) [Compound Y-034, 6-(5-Cyanopyrazin-2-ylamino)-N-ethyl-4-(8-methyl-8-azabicyclo[3.2.1]octan-3-ylamino)nicotinamide], the IC50 was ≤ 1 µM and 0.1 to 1 µM.
The compound `COC(=O)c1cnc(Nc2cnc(OC)cn2)cc1NCC1CNCCO1` (centres unmarked) [Compound Y-106, Methyl 6-(5-methoxypyrazin-2-ylamino)-4-(morpholin-2-ylmethylamino)nicotinate] returned an IC50 of 0.1 to 1 µM.
As for `N#Cc1cnc(Nc2cc(N[C@@H]3CCCNC3)c(N)cn2)cn1` [Compound Y-008, (R)-5-(5-Amino-4-(piperidin-3-ylamino)pyridin-2-ylamino)pyrazine-2-carbonitrile], the figure is ≤ 1 µM and 0.1 to 1 µM; as for `N#Cc1cnc(Nc2cc(NCCCCO)ncn2)cn1` [Compound Z-041, 5-(6-(4-Hydroxybutylamino)pyrimidin-4-ylamino)pyrazine-2-carbonitrile], 1 to 10 µM; as for `N#Cc1cnc(Nc2cc(N[C@H]3CCCNC3)c(N)cn2)cn1` [Compound Y-009, (S)-5-(5-Amino-4-(piperidin-3-ylamino)pyridin-2-ylamino)pyrazine-2-carbonitrile], 1 to 10 µM.
`N#Cc1cnc(Nc2cc(N3CCC(C(N)c4ccccc4)CC3)ncn2)cn1` (centres unmarked) [Compound Z-015, 5-(6-(4-(Amino(phenyl)methyl)piperidin-1-yl)pyrimidin-4-ylamino)pyrazine-2-carbonitrile]: the IC50 lay in the range of 1 to 10 µM.
As to `N#Cc1cnc(Nc2cc(NCC3CCNCC3)c(C(N)=O)cn2)cn1` [Compound Y-101, 6-(5-Cyanopyrazin-2-ylamino)-4-(piperidin-4-ylmethylamino)nicotinamide], the IC50 was 0.1 to 1 µM.
Take `N#Cc1cnc(Nc2cc(NCC3CCNCC3)c(C(=O)NCCO)cn2)cn1` [Compound Y-088, 6-(5-Cyanopyrazin-2-ylamino)-N-(2-hydroxyethyl)-4-(piperidin-4-ylmethylamino)nicotinamide]: the IC50 fell in the range of 0.1 to 1 µM.
Under `CN(C)CC(=O)Nc1cnc(Nc2cnc(C#N)cn2)cc1NCC1CCCNC1` (centres unmarked) [Compound Y-044, N-(6-(5-Cyanopyrazin-2-ylamino)-4-(piperidin-3-ylmethylamino)pyridin-3-yl)-2-(dimethylamino)acetamide] stands 0.1 to 1 µM; under `c1cnc(Nc2cc(NCC3CCNCC3)ncn2)cn1` [Compound Z-004, N-(Piperidin-4-ylmethyl)-W-pyrazin-2-ylpyrimidine-4,6-diamine], 1 to 10 µM; under `COC(=O)c1cnc(Nc2cnc(C#N)cn2)cc1NCC1CCCCN1` (centres unmarked) [Compound Y-073, Methyl 6-(5-cyanopyrazin-2-ylamino)-4-(piperidin-2-ylmethylamino)-nicotinate], at most 0.1 µM.
`COCCCOc1ccc(-c2cnc(Nc3cnc(C#N)cn3)cc2NCC2CCNCC2)cc1` [Compound Y-133, 5-(5-(4-(3-Methoxypropoxy)phenyl)-4-(piperidin-4-ylmethylamino)pyridin-2-ylamino)pyrazine-2-carbonitrile]: the IC50 is 0.1 to 1 µM.
For the compound `COCCOc1ccc(-c2cnc(Nc3cnc(C#N)cn3)cc2NC[C@H]2CNCCO2)cc1` [Compound Y-157, (R)-5-(5-(4-(2-Methoxyethoxy)phenyl)-4-(morpholin-2-ylmethylamino)pyridin-2-ylamino)pyrazine-2-carbonitrile], the IC50 was at most 0.1 µM.
Under `COc1ccc(CC(=O)Nc2cnc(Nc3cnc(C#N)cn3)cc2NCC2CCNCC2)cc1` [Compound Y-013, N-(6-(5-Cyanopyrazin-2-ylamino)-4-(piperidin-4-ylmethylamino)pyridin-3-yl)-2-(4-methoxyphenyl)acetamide] stands 1 to 10 µM; under `CN(C)CC(=O)Nc1cnc(Nc2cnc(C#N)cn2)cc1N[C@@H]1CCCNC1` [Compound Y-043, (R)—N-(6-(5-Cyanopyrazin-2-ylamino)-4-(piperidin-3-ylamino)pyridin-3-yl)-2-(dimethylamino)acetamide], 0.1 to 1 µM; under `COC(=O)c1cnc(Nc2cnc(C#N)cn2)cc1N(C)C1CCN(C)CC1` [Compound Y-070, Methyl 6-(5-cyanopyrazin-2-ylamino)-4-(methyl(1-methylpiperidin-4-yl)amino)nicotinate], at most 0.1 µM.
Take `N#Cc1cnc(Nc2cc(NCCN)c(N)cn2)cn1` [Compound Y-003, 5-(5-Amino-4-(2-aminoethylamino)pyridin-2-ylamino)pyrazine-2-carbonitrile]: the IC50 is ≤ 1 µM and 0.66 µM and 0.1 to 1 µM.
`COc1ccc(-c2cnc(Nc3cnc(C#N)cn3)cc2NCCC2CNCCO2)cc1` (centres unmarked) [Compound Y-137, 5-(5-(4-methoxyphenyl)-4-(2-(morpholin-2-yl)ethylamino)pyridin-2-ylamino)pyrazine-2-carbonitrile] displayed an IC50 of at most 0.1 µM.
`N#Cc1cnc(Nc2cc(NCC3CCNCC3)c(C(=O)N3CCCC3)cn2)cn1` [Compound Y-087, 5-(4-(Piperidin-4-ylmethylamino)-5-(pyrrolidine-1-carbonyl)pyridin-2-ylamino)pyrazine-2-carbonitrile]: the IC50 was at most 0.1 µM.
With `N#Cc1cnc(Nc2cc(NCC3CCNCC3)c(C#CCO)cn2)cn1` [Compound Y-145, 5-(5-(3-Hydroxyprop-1-ynyl)-4-(piperidin-4-ylmethylamino)pyridin-2-ylamino)pyrazine-2-carbonitrile], the IC50 is at most 0.1 µM.
As for `COCCOc1ccc(-c2cnc(Nc3cnc(C#N)cn3)cc2NC[C@@H]2CNCCO2)cc1` [Compound Y-149, (S)-5-(5-(4-(2-Methoxyethoxy)phenyl)-4-(morpholin-2-ylmethylamino)pyridin-2-ylamino)pyrazine-2-carbonitrile], the figure is at most 0.1 µM.
As for `N#Cc1cnc(Nc2cc(NCCC3CCNCC3)ncn2)cn1` [Compound Z-029, 5-(6-(2-(Piperidin-4-yl)ethylamino)pyrimidin-4-ylamino)pyrazine-2-carbonitrile], the figure is ≤ 1 µM and 0.1 to 1 µM.
`CN1CCC(Nc2cc(Nc3cnc(C#N)cn3)ncc2-c2ccc(N3CCOCC3)cc2)CC1` [Compound Y-120, 5-(4-(1-Methylpiperidin-4-ylamino)-5-(4-morpholinophenyl)pyridin-2-ylamino)pyrazine-2-carbonitrile]: the IC50 is at most 0.1 µM.
As to `CN1C2CCC1CC(Nc1cc(Nc3cnc(C#N)cn3)ncn1)C2` [Compound Z-027, 5-(6-((1R,3s,5S)-8-Methyl-8-azabicyclo[3.2.1]octan-3-ylamino)pyrimidin-4-ylamino)pyrazine-2-carbonitrile], the IC50 is at most 0.1 µM.
In turn, `CCOC(=O)c1cc(-c2cnc(Nc3cnc(C#N)cn3)cc2NCC2CCNCC2)cs1` [Compound Y-128, Ethyl 4-(6-(5-cyanopyrazin-2-ylamino)-4-(piperidin-4-ylmethylamino)pyridin-3-yl)thiophene-2-carboxylate] gave a 50% inhibitory concentration (IC50) of at most 0.1 µM.

For orientation: IC50 means the concentration that inhibits the measured activity by half. Low readings indicate greater potency in that assay, high ones weaker potency in that assay.
